# According to patent US4371521A, “Pharmaceutical composition for retarding excessive platelet aggregation” (priority 1973, dated 1983):
# Like-named read-outs stand apart in the source and are kept apart here.
# How the values were obtained:
# creatine-phosphokinase = details: various buffers and pHs, cited from earlier work
# [1] = Pharmacological results of the single components; details: in the absence of the other component
# [2] = Acute toxicity (LD50) in male albino mice; format: in vivo; details: mouse, in vivo, Tainter and Miller, ± standard deviation
# male albino mice = experiment: Acute toxicity (LD50) in male albino mice; format: in vivo; details: Tainter and Miller, ± standard deviation
compound,measurement,setting,value
"Nc1ncnc2c1ncn2[C@@H]1O[C@H](COP(=O)(O)OP(=O)(O)O)[C@@H](O)[C@H]1O [ADP, adenosine-diphosphate, reference compound]",Rmax,creatine-phosphokinase,1.7 μmols/minute/μg of protein
same,Km,creatine-phosphokinase; read-out: Michaelis constant for ADP,800 to 1000 µM
"CN(CC(=O)O)C(=N)NP(=O)(O)O [CP, creatine-phosphate]",Rmax,creatine-phosphokinase,1.1 μmols/minute/μg of protein
same,Km,creatine-phosphokinase; read-out: Michaelis constant for creatine-phosphate,5000 µM
same,pharmacological results of the component alone,[1],Neither the substrate (CP) alone (i.e. in the absence of the administration of the enzyme which brings about its conversion) nor the enzyme (CPK) alone gives the pharmacological results
same,LD50,[2],3500 ± 120 mg/kg
CPK: enzyme found in striated and cardiac muscle and cerebral tissue; protein molecule of molecular weight 8.1×10^4; crystalline form from rabbit skeletal muscle,pharmacological results of the component alone,[1],Neither the substrate (CP) alone (i.e. in the absence of the administration of the enzyme which brings about its conversion) nor the enzyme (CPK) alone gives the pharmacological results
same,LD50,male albino mice,> 100 mg/kg
